23 compounds from patent publication US11505536B2, “Dihydroorotate dehydrogenase inhibitors” (Janssen Biotech, Inc., priority 2019, dated 2022) can be followed below.

One experiment concerns the target human DHODH (Homo sapiens (Human), UniProt Q02127). Description: DHODH Enzymatic Assay. The class given is biochemical. The settings on record: purified human DHODH, DCIP absorbance, end-point mode; read-out: hDHODH IC50. An outline of the steps: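 Purified human DHODH in […] HEPES pH 7.5, 150 mM NaCl, 0.5 mM EDTA, 0.1% Triton X-100; reaction started with substrate mix of 20 mM DHO, 5 mM CoQ6, 1 mM DCIP. End-point read as DCIP reduction (absorbance ~600 nm) after brequinar quench.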

Experiment [1] has as its system MOLM-13 cells (human acute myeloid leukemia cells). Description: MOLM-13 Cellular Assay. The class given is cell-based. Conditions: 72 hours exposure, cell viability by CellTiter-Glo. An outline of the steps:
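MOLM-13 AML cells, seeded at 5,000/well in RPMI 1640 with 10% FBS, were treated with compounds right after seeding for 72 h at 37 °C, 5% CO2. Viability read by CellTiter-Glo luminescence.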

Sequence of human DHODH (Q02127 whole entry): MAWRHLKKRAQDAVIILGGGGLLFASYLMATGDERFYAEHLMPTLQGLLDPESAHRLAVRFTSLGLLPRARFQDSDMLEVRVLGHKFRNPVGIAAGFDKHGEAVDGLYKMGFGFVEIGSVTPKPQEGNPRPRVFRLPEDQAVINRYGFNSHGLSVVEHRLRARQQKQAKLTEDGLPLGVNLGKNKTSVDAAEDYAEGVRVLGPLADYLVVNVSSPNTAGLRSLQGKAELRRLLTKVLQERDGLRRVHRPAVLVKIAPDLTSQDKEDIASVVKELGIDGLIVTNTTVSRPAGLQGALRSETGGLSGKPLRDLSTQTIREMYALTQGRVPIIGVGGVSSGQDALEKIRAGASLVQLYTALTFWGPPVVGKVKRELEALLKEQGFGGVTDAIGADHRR

In the case of `C=C(C)c1cn(-c2cc(C)cnc2Cl)c(=O)c2cc(F)c(-n3nc(CO)n(CC)c3=O)cc12` [Example 84, 2-(2-Chloro-5-methylpyridin-3-yl)-6-(4-ethyl-3-(hydroxymethyl)-5-oxo-4,5-dihydro-1H-1,2,4-triazol-1-yl)-7-fluoro-4-(prop-1-en-2-yl)isoquinolin-1(2H)-one], the IC50 (commonly the midpoint of a concentration-inhibition curve) amounted to 6.58 nM at human DHODH and 70 nM in experiment [1] (Homo sapiens, MOLM-13, 72 h).
For `C=C(C)c1cn(-c2c(F)cccc2Cl)c(=O)c2cc(F)c(-n3nc(CO)n(CC)c3=O)cc12` [Example 52, 2-(2-Chloro-6-fluorophenyl)-6-(4-ethyl-3-(hydroxymethyl)-5-oxo-4,5-dihydro-1H-1,2,4-triazol-1-yl)-7-fluoro-4-(prop-1-en-2-yl)isoquinolin-1(2H)-one], the IC50 at human DHODH was 0.265 nM; in experiment [1], 0.1 nM; in experiment [1] (Homo sapiens, MOLM-13, 72 h), not above 0.2 nM.
As for `CCn1c(CO)nn(-c2cc3c(C(C)C)cn(-c4c(C)cnc(OC)c4C)c(=O)c3cc2F)c1=O` [Example 78, 6-(4-Ethyl-3-(hydroxymethyl)-5-oxo-4,5-dihydro-1H-1,2,4-triazol-1-yl)-7-fluoro-4-isopropyl-2-(2-methoxy-3,5-dimethylpyridin-4-yl)isoquinolin-1(2H)-one], the IC50 turned out to be 2.34 nM at human DHODH and 20 nM in experiment [1] (Homo sapiens, MOLM-13, 72 h).
Regarding `CCn1c(CO)nn(-c2cc3c(C(C)C)cn(-c4ccccc4C)c(=O)c3cc2F)c1=O` [Example 22, 6-(4-Ethyl-3-(hydroxymethyl)-5-oxo-4,5-dihydro-1H-1,2,4-triazol-1-yl)-7-fluoro-4-isopropyl-2-(o-tolyl)isoquinolin-1(2H)-one], the half-maximal inhibitory concentration (IC50) on human DHODH is 0.396 nM; in experiment [1], 0.2 nM; in experiment [1] (Homo sapiens, MOLM-13, 72 h), not above 0.2 nM.
As for `C=C(C)c1cn(-c2cc(OC)ccc2Cl)c(=O)c2cc(F)c(-n3nc(CO)n(CC)c3=O)cc12` [Example 47, 2-(2-Chloro-5-methoxyphenyl)-6-(4-ethyl-3-(hydroxymethyl)-5-oxo-4,5-dihydro-1H-1,2,4-triazol-1-yl)-7-fluoro-4-(prop-1-en-2-yl)isoquinolin-1(2H)-one], the concentration for half-maximal inhibition (IC50) on human DHODH is 1.21 nM; in experiment [1] (Homo sapiens, MOLM-13, 72 h), 0.7 nM.
The like results for `C=C(C)c1cn(-c2cccc(OCCO)c2Cl)c(=O)c2cc(F)c(-n3nc(CO)n(CC)c3=O)cc12` [Example 65, 2-(2-Chloro-3-(2-hydroxyethoxy)phenyl)-6-(4-ethyl-3-(hydroxymethyl)-5-oxo-4,5-dihydro-1H-1,2,4-triazol-1-yl)-7-fluoro-4-(prop-1-en-2-yl)isoquinolin-1(2H)-one] were, in that order, 1.65 nM and 20 nM.
The matching figures for `CCc1ccccc1-n1cc(C(C)C)c2cc(-n3nc(CO)n(CC)c3=O)c(F)cc2c1=O` [Example 89, 6-(4-Ethyl-3-(hydroxymethyl)-5-oxo-4,5-dihydro-1H-1,2,4-triazol-1-yl)-2-(2-ethylphenyl)-7-fluoro-4-isopropylisoquinolin-1(2H)-one]: 1.21 nM and 2 nM.
In the case of `C=C(C)c1cn(-c2c(C)ccnc2OC)c(=O)c2cc(F)c(-n3nc(CO)n(CC)c3=O)cc12` [Example 59, 6-(4-Ethyl-3-(hydroxymethyl)-5-oxo-4,5-dihydro-1H-1,2,4-triazol-1-yl)-7-fluoro-2-(2-methoxy-4-methylpyridin-3-yl)-4-(prop-1-en-2-yl)isoquinolin-1(2H)-one], the IC50 on human DHODH amounted to 2.23 nM; in experiment [1] (Homo sapiens, MOLM-13, 72 h), 5 nM.
The like results for `CCn1c(CO)nn(-c2cc3c([C@H](C)C(F)(F)F)cn(-c4ccccc4C)c(=O)c3cc2F)c1=O` [Example 101, (S)-6-(4-Ethyl-3-(hydroxymethyl)-5-oxo-4,5-dihydro-1H-1,2,4-triazol-1-yl)-7-fluoro-2-(o-tolyl)-4-(1,1,1-trifluoropropan-2-yl)isoquinolin-1(2H)-one] were, in that order, 1.19 nM and 0.4 nM.
The like results for `C=C(C)c1cn(-c2c(F)cccc2Cl)c(=O)c2ccc(-n3nc(CO)n(CC)c3=O)cc12` [Example 5, 2-(2-Chloro-6-fluorophenyl)-6-(4-ethyl-3-(hydroxymethyl)-5-oxo-4,5-dihydro-1H-1,2,4-triazol-1-yl)-4-(prop-1-en-2-yl)isoquinolin-1(2H)-one] were, in that order, 1.29 nM and 0.9 nM.
The like results for `C=C(c1cn(-c2c(F)cccc2Cl)c(=O)c2ccc(-n3nc(CO)n(CC)c3=O)cc12)C(F)(F)F` [Example 6, 2-(2-Chloro-6-fluorophenyl)-6-(4-ethyl-3-(hydroxymethyl)-5-oxo-4,5-dihydro-1H-1,2,4-triazol-1-yl)-4-(3,3,3-trifluoroprop-1-en-2-yl)isoquinolin-1(2H)-one] were, in that order, 1.94 nM and 1 nM.
With `CCn1c(CO)nn(-c2cc3c(C(C)C)cn(-c4c(C)ccnc4OC)c(=O)c3cc2F)c1=O` [Example 50, 6-(4-Ethyl-3-(hydroxymethyl)-5-oxo-4,5-dihydro-1H-1,2,4-triazol-1-yl)-7-fluoro-4-isopropyl-2-(2-methoxy-4-methylpyridin-3-yl)isoquinolin-1(2H)-one], the IC50 is 2.75 nM at human DHODH and 7 nM in experiment [1] (Homo sapiens, MOLM-13, 72 h).
The like results for `CCn1c(CO)nn(-c2ccc3c(=O)n(-c4c(F)cccc4Cl)nc(C(C)C)c3c2)c1=O` [Example 19, 2-(2-Chloro-6-fluorophenyl)-6-(4-ethyl-3-(hydroxymethyl)-5-oxo-4,5-dihydro-1H-1,2,4-triazol-1-yl)-4-isopropylphthalazin-1(2H)-one] were, in that order, 4.96 nM and 4 nM.
The like results for `[2H]C([2H])([2H])c1ccccc1-n1cc(C(C)C)c2cc(-n3nc(CO)n(CC)c3=O)c(F)cc2c1=O` [Example 93, 6-(4-Ethyl-3-(hydroxymethyl)-5-oxo-4,5-dihydro-1H-1,2,4-triazol-1-yl)-7-fluoro-4-isopropyl-2-(2-(methyl-d3)phenyl)isoquinolin-1(2H)-one] were, in that order, 0.463 nM and 0.6 nM.
The matching figures for `C=C(C)c1cn(-c2cccc(F)c2)c(=O)c2ccc(-n3nc(CO)n(CC)c3=O)cc12` [Example 1, 6-(4-Ethyl-3-(hydroxymethyl)-5-oxo-4,5-dihydro-1H-1,2,4-triazol-1-yl)-2-(3-fluorophenyl)-4-(prop-1-en-2-yl)isoquinolin-1(2H)-one]: 9.89 nM and 6 nM.
Take `CCn1c(CO)nn(-c2cc3c(C(C)C)cn(-c4nnccc4C)c(=O)c3cc2F)c1=O` [Example 100, 6-(4-Ethyl-3-(hydroxymethyl)-5-oxo-4,5-dihydro-1H-1,2,4-triazol-1-yl)-7-fluoro 4-isopropyl-2-(4-methylpyridazin-3-yl)isoquinolin-1(2H)-one]: the IC50 is 70.7 nM at human DHODH and more than 100 nM in experiment [1] (Homo sapiens, MOLM-13, 72 h).
The like results for `C=C(C)c1cn(-c2ccccc2C)c(=O)c2cc(C)c(-n3nc(CO)n(CC)c3=O)cc12` [Example 79, 6-(4-Ethyl-3-(hydroxymethyl)-5-oxo-4,5-dihydro-1H-1,2,4-triazol-1-yl)-7-methyl-4-(prop-1-en-2-yl)-2-(o-tolyl)isoquinolin-1(2H)-one] were, in that order, 17.1 nM and 10 nM.
The matching figures for `CCn1c(CO)nn(-c2cc3c(C(C)C)cn(-c4cc(C)ccc4F)c(=O)c3cc2F)c1=O` [Example 41, 6-(4-Ethyl-3-(hydroxymethyl)-5-oxo-4,5-dihydro-1H-1,2,4-triazol-1-yl)-7-fluoro-2-(2-fluoro-5-methylphenyl)-4-isopropylisoquinolin-1(2H)-one]: 2.98 nM and 2 nM.
The like results for `CCn1c(CO)nn(-c2ccc3c(=O)n(-c4c(F)cccc4Cl)cc(C4CC4)c3c2)c1=O` [Example 9, 2-(2-Chloro-6-fluorophenyl)-4-cyclopropyl-6-(4-ethyl-3-(hydroxymethyl)-5-oxo-4,5-dihydro-1H-1,2,4-triazol-1-yl)isoquinolin-1(2H)-one] were, in that order, 11.5 nM and 5 nM.
For the compound `CCn1c(CO)nn(-c2cc3c(C(C)C(F)(F)F)cn(-c4ccccc4C)c(=O)c3cc2F)c1=O` (racemic) [Example 88, Racemic-6-(4-Ethyl-3-(hydroxymethyl)-5-oxo-4,5-dihydro-1H-1,2,4-triazol-1-yl)-7-fluoro-2-(o-tolyl)-4-(1,1,1-trifluoropropan-2-yl)isoquinolin-1(2H)-one], the half-inhibitory concentration (IC50) turned out to be 0.52 nM on human DHODH and 0.9 nM in experiment [1] (Homo sapiens, MOLM-13, 72 h).
The like results for `C=C(C)c1cn(-c2cccc(F)c2C)c(=O)c2cc(F)c(-n3nc(CO)n(CC)c3=O)cc12` [Example 86, 6-(4-Ethyl-3-(hydroxymethyl)-5-oxo-4,5-dihydro-1H-1,2,4-triazol-1-yl)-7-fluoro-2-(3-fluoro-2-methylphenyl)-4-(prop-1-en-2-yl)isoquinolin-1(2H)-one] were, in that order, 1.19 nM and 3 nM.
The matching figures for `CCn1c(CO)nn(-c2cc3c(C(C)C)cn(-c4cc(C)ncc4C)c(=O)c3cc2F)c1=O` [Example 135, 2-(2,5-Dimethylpyridin-4-yl)-6-(4-ethyl-3-(hydroxymethyl)-5-oxo-4,5-dihydro-1H-1,2,4-triazol-1-yl)-7-fluoro-4-isopropylisoquinolin-1(2H)-one]: 6.93 nM and 50 nM.
The like results for `C=C(C)c1cn(-c2c(C)cnc(OC)c2Cl)c(=O)c2cc(F)c(-n3nc(CO)n(CC)c3=O)cc12` [Example 62, 2-(3-Chloro-2-methoxy-5-methylpyridin-4-yl)-6-(4-ethyl-3-(hydroxymethyl)-5-oxo-4,5-dihydro-1H-1,2,4-triazol-1-yl)-7-fluoro-4-(prop-1-en-2-yl)isoquinolin-1(2H)-one] were, in that order, 0.836 nM and 2 nM.
